# Results published in US20220160713A1, “SELECTIVE INHIBITOR OF PROTEIN ARGININE […] 5 (PRMT5)” (PRELUDE THERAPEUTICS, INCORPORATED, priority 2019, published 2022).
# “Also recorded” adds a separate entry of the source.
# Tests used:
# physchem = settings: 25 °C, thermodynamic from solid
# Procedure: Compounds are first dispersed in freshly prepared FaSSIF (http://biorelevant.com/site_media/upload/documents/How_to_make_FaSSIF_FeSSIF_and_FaSSGF.pdf) buffer in 1 mg/mL respectively, and the standard samples are prepared by preparing 1 mg/mL of test compounds in DMSO. The compounds are then sufficient mixed by vortex mixer for 30 sec, and agitated at 25° C. using 300 rpm form 4 hour in thermo mixer. After incubation, the prepared samples are centrifuged at 10000 rpm for 10 min to remove the undissolved solid, the resulting supernatants are applied to HPLC. The actual concentrations of the compounds are evaluated by measuring the peak area, and the solubility (S) of compounds is calculated according to following equation:
# S=Csmp=Cstd*(Asmp/Astd)*(Vstd/Vsmp)
# Where C is the sample concentration in μg/mL, A is the peak area, and V is the injection volume.
# [1] = system: Granta-519 mouse xenograft; test: Tumor growth inhibition in Granta-519 mouse xenograft model; type: in vivo
# Procedure: (§1) Granta-519 cells was maintained in DMEM medium supplemented with 10% fetal bovine serum and 2 mM L-Glutamine at 37° C. in an atmosphere of 5% CO2 in air. Cells in exponential growth phase were harvested and 1×10^7 cells in 0.1 mL of PBS with Matrigel (1:1) were injected subcutaneously at the right lower flank region of each mouse for tumor development. The treatments were started when the mean tumor size reaches approximately 300-400 mm^3. […] Formula I or vehicle (0.5% Na CMC+0.5% Tween80, suspension) were administered orally (QD for Formula I, QD for vehicle) at a dose of 30 mg/kg and 50 mg/kg for 19 and 16 days, respectively. Body weights and tumor size were measured every 3 to 4 days after randomization. Animals were euthanized 12 hours after last dosing, and blood and tumor samples were collected for analysis.
# [2] = Rat non-crossover PK study; type: in vivo, rat (SD, male, non-fasted); settings: 1 mg/kg p.o.
# Procedure: In a rat (SD, male, non-fasted) non-crossover PK study, the compound of Formula I was dosed at 1 mg/kg (DMA: 20% HPBCD=5:95, solution) via i.v. administration (N=3) and 1 mg/kg (0.5% Na CMC+0.5% Tween80, solution) via oral gauge (p.o.) (N=3).
# [3] = system: Symmetric Di-Methyl Arginine (sDMA) marks in Granta-519 cell line; test: Cellular sDMA western blot in Granta cells; type: cell-based; settings: Homo sapiens, 72 h, 3 days
# Granta-519 cells = test: Cell proliferation assay on Granta-519 cells (CCK-8); type: cell-based; settings: Homo sapiens, 240 h; Granta-519 cell line, day 10; read-out: Prolif. IC50
# Procedure: Granta-519 cells are maintained in PRMI 1640 (Corning Cellgro, Catalog #: 10-040-CV) medium supplemented with 10% v/v FBS (GE Healthcare, Catalog #: SH30910.03). Formula I is dissolved in DMSO to make 10 mM stocks and stored at −20° C. Nine-point, 3-fold serial dilutions are made with DMSO with top concentration at 1 mM (working stocks).
# On day of experiment, compound working stocks are further diluted at 1:50 with fresh medium in 96 well plate, and 10 μL of diluted drugs are added to a new 96 well plate for proliferation assay. Cells growing at exponential phase are spun down at 1500 rpm for 4 min and resuspend in fresh medium to reach a density of 0.5×10^6 cells/ml. 200 ul of cells are added to 96 well plate containing diluted drugs and incubated for 3 days. DMSO is used a vehicle control.
# One day 3, 10 μL of Cell Counting Kit-8 (CCK-8, Jojindo, CK04-13) solution is added to a new 96 well plate. […] Plates are incubated in CO2 incubator for 2 hours and OD450 values are measured with a microplate reader (iMark microplate reader, Bio-Rad). […]
# Percentage of viable cells, relative to DMSO vehicle control, is calculated and plotted in Graphpad Prism ([Inhibitor] vs. normalized response−Variable slope) to determine proliferation IC50 values on day 10.
# [4] = system: sDMA in Granta-519 tumor samples; test: sDMA levels in tumor samples of Granta-519 mouse xenograft (western blot); type: in vivo
# Procedure: as §1
# To measure sDMA levels in tumor samples, tumors from each mouse were weighted and homogenized in RIPA buffer supplemented with protease inhibitor (cOmplete™, EDTA-free Protease Inhibitor Cocktail, Roche). Lysate were centrifuged at 14,000 rpm for 30 min at 4° C. to remove debris. Total protein concentrations of lysate were determined by BCA assay (ThermoFisher Scientific, Catalog #: 23225). Equal amount of total proteins from each tumor were separated on SDS-PAGE gel, and sDMA levels were determined by WB as described previously.
# [5] = Dynamic vapor sorption (DVS); type: physicochemical
# Procedure: The dynamic vapor sorption experiments can be done with a VTI SGA-Cx100 Symmetric Vapor Sorption Analyzer. The moisture uptake profile is completed in three cycles of 10% RH increments with adsorption from 5% to 95% RH, followed by desorption of 10% increments from 95% to 5%. The equilibration criteria are 0.0050 wt % in 5 minutes with a maximum equilibration time of 180 minutes. All adsorption and desorption are performed at room temperature (21-22° C.). No pre-drying step is applied for the samples.
# [6] = Gravimetric solubility estimate in water; type: physicochemical; settings: thermodynamic from solid
# [7] = room temperature, normal humidity range (40-50% RH)
SMILES,"change of form, XRPD before and after DVS [5]",water adsorbed (adsorption/desorption isotherms) ([5]; at about 95% humidity) [%],"water adsorbed (adsorption/desorption isotherms) [5, 7] [%]",solubility [6] [µg/mL],further results
O=C1C(O)=C([C@H]2CC[C@H](c3ccc(Cl)cc3)CC2)C(=O)c2ccccc21 [Atovaquone],,,,,solubility at 4 h (physchem; fassif): < 2 µg/mL
"C[C@@]1(O)[C@@H]([C@H](O)c2ccc(Cl)c(Cl)c2)O[C@@H](n2ccc3c(N)ncnc32)[C@@H]1O [Formula I, (2R,3S,4R,5R)-5-(4-amino-7H-pyrrolo[2,3-d]pyrimidin-7-yl)-2-((R)-(3,4-dichlorophenyl)(hydroxy)methyl)-3-methyltetrahydrofuran-3,4-diol]",,,,,"body weight loss ([1]; 30 mg/kg orally QD, 19 days): 1%; tumor growth inhibition ([1]; 30 mg/kg orally QD, 19 days): 46%; body weight loss ([1]; 50 mg/kg orally QD, 16 days): 8%; tumor growth inhibition ([1]; 50 mg/kg orally QD, 16 days): 79%; average dose normalized AUC [2]: 3246 ng·kg·h/mL/mg; bioavailability ([2]; male, SD, blood, po): > 100%; IC50 [3]: 31 nM; IC50 (Granta-519 cells): 75 nM; inhibition of sDMA in tumor ([4]; 30 mg/kg orally QD): > 90%; sDMA in tumor ([4]; 50 mg/kg orally QD): no detectable sDMA"
"C[C@@]1(O)[C@@H]([C@H](O)c2ccc(Cl)c(Cl)c2)O[C@@H](n2ccc3c(N)ncnc32)[C@@H]1O [Formula I, Form I, (2R,3S,4R,5R)-5-(4-amino-7H-pyrrolo[2,3-d]pyrimidin-7-yl)-2-((R)-(3,4-dichlorophenyl)(hydroxy)methyl)-3-methyltetrahydrofuran-3,4-diol]",did not change the polymorphic form; also recorded: no change in form,~0.5,~0.8,,
"C[C@@]1(O)[C@@H]([C@H](O)c2ccc(Cl)c(Cl)c2)O[C@@H](n2ccc3c(N)ncnc32)[C@@H]1O.O=C(O)/C=C\C(=O)O [Formula IA, (2R,3S,4R,5R)-5-(4-amino-7H-pyrrolo[2,3-d]pyrimidin-7-yl)-2-((R)-(3,4-dichlorophenyl)(hydroxy)methyl)-3-methyltetrahydrofuran-3,4-diol, maleate salt]",,,,~1100,
"C[C@@]1(O)[C@@H]([C@H](O)c2ccc(Cl)c(Cl)c2)O[C@@H](n2ccc3c(N)ncnc32)[C@@H]1O.Cl [Formula IB, (2R,3S,4R,5R)-5-(4-amino-7H-pyrrolo[2,3-d]pyrimidin-7-yl)-2-((R)-(3,4-dichlorophenyl)(hydroxy)methyl)-3-methyltetrahydrofuran-3,4-diol, hydrochloride salt]",,,,~800,
"C[C@@]1(O)[C@@H]([C@H](O)c2ccc(Cl)c(Cl)c2)O[C@@H](n2ccc3c(N)ncnc32)[C@@H]1O.Cl [Formula IB, Form III]",no change in form,~2.8,~1,,
"C[C@@]1(O)[C@@H]([C@H](O)c2ccc(Cl)c(Cl)c2)O[C@@H](n2ccc3c(N)ncnc32)[C@@H]1O.Cl [Formula IB, Form II]",no change in Form,~6,~3,,
"C[C@@]1(O)[C@@H]([C@H](O)c2ccc(Cl)c(Cl)c2)O[C@@H](n2ccc3c(N)ncnc32)[C@@H]1O.Cl [Formula IB, Form I]",no change in Form,~0.5,~0.1,,
"C[C@@]1(O)[C@@H]([C@H](O)c2ccc(Cl)c(Cl)c2)O[C@@H](n2ccc3c(N)ncnc32)[C@@H]1O.O=C(O)C(=O)O [Formula IC, (2R,3S,4R,5R)-5-(4-amino-7H-pyrrolo[2,3-d]pyrimidin-7-yl)-2-((R)-(3,4-dichlorophenyl)(hydroxy)methyl)-3-methyltetrahydrofuran-3,4-diol, oxalate salt]",,,,< 300,
"C[C@@]1(O)[C@@H]([C@H](O)c2ccc(Cl)c(Cl)c2)O[C@@H](n2ccc3c(N)ncnc32)[C@@H]1O.O=P(O)(O)O [Formula ID, (2R,3S,4R,5R)-5-(4-amino-7H-pyrrolo[2,3-d]pyrimidin-7-yl)-2-((R)-(3,4-dichlorophenyl)(hydroxy)methyl)-3-methyltetrahydrofuran-3,4-diol, phosphate salt]",,,,< 300,
CC(=O)CC(c1ccccc1)c1c(O)c2ccccc2oc1=O (stereo not shown) [Warfarin],,,,,solubility at 4 h (physchem): 10 to 25 µg/mL
